Test results: patent US10144715B2, “Piperazine derivatives as liver X receptor modulators” (priority 2014, dated 2018)
Read-outs that look alike come from different tables or passages of the source.

Legend:
LXR β LBD protein = LXR β LBD protein (Homo sapiens (Human), UniProt P55055); experiment: biochemical; assay type: binding; conditions: read-out: LXRβ Binding Ki
[1] = target: T1, Gal4 DNA binding domain fused to the LBD of LXRα in HEK293 cells (Homo sapiens (Human), UniProt Q13133); experiment: LXR luciferase transcriptional reporter gene assay, agonist mode, LXRα; assay type: cell-based
[2] = target: T2, Gal4 DNA binding domain fused to the LBD of LXRβ in HEK293 cells (Homo sapiens (Human), UniProt P55055); experiment: cell-based
[3] = target: T1, Gal4 DNA binding domain fused to the LBD of LXRα in HEK293 cells; experiment: LXR luciferase transcriptional reporter gene assay, antagonist mode (200 nM T0901317), LXRα; assay type: cell-based
[4] = target: T2, Gal4 DNA binding domain fused to the LBD of LXRβ in HEK293 cells; experiment: cell-based; assay type: cell-based
LXR α LBD protein [5] = target: T3, LXR α LBD protein (Homo sapiens (Human), UniProt Q13133); experiment: Human LXRα coactivator recruitment FRET assay, agonist mode; assay type: biochemical; conditions: agonist mode
How it was run: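 LXRα- or LXRβ-LBD at 10 nM (2×) mixed with compound in DMSO, then fluorescein-SRC2-3 peptide 200 nM and Tb-anti-GST antibody 20 nM (4×) added; 2 h at rt. Time-resolved FRET read, 100 µs delay, 200 µs window; EC50 from four-parameter fit of percent control.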

LXR α LBD protein [6] = target: T3, LXR α LBD protein; experiment: LXR α radioligand binding assay (SPA, competition with [3H]TO901317); conditions: read-out: LXRα Binding Ki
[7] = antagonist mode, 200 nM T0901317, HEK293 reporter gene assay
[8] = antagonist mode, 200 nM T0901317, HEK293 reporter gene assay, read-out: Cell LXRβ IC50
[9] = agonist mode, read-out: Cell LXRα EC50
[10] = antagonist mode, 200 nM T0901317, HEK293 reporter gene assay, read-out: Cell LXRα IC50
[11] = agonist mode, read-out: Cell LXRβ EC50

T3 sequence (Q13133 209-447): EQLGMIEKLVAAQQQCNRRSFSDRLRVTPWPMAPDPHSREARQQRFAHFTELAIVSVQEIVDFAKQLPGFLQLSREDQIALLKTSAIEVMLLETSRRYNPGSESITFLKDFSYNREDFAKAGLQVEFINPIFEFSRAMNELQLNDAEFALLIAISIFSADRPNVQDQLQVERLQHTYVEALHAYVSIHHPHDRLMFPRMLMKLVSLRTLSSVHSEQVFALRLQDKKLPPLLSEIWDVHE
T1 sequence (Q13133 209-447): as above
T2 sequence (P55055 222-460 limits assumed): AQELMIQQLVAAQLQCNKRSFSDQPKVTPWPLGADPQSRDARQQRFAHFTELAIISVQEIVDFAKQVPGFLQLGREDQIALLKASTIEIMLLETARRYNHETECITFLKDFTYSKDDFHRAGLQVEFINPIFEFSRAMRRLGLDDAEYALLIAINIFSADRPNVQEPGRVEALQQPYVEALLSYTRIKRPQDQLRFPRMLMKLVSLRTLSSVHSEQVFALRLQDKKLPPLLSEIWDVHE
Sequence of LXR β LBD protein (P55055 222-460 limits assumed): as above

SMILES | Ki (LXR β LBD protein) | Cell LXRα efficacy [1] | EC50 ([1]; read-out: Cell LXRα EC50) | EC50 [2] | Cell LXRα efficacy [3] | IC50 ([3]; read-out: Cell LXRα IC50) | IC50 [4] | Ki (LXR α LBD protein [6]) | Cell LXRβ efficacy [4, 7] | Cell LXRβ efficacy ([2]; agonist mode) | EC50 [1, 9] | IC50 [3, 10] | further results
CC(C)[C@@H]1CN(c2ccc(F)c(S(C)(=O)=O)c2Cl)CCN1c1ncc(Cl)c(C2CC2)n1 [Cpd No 22-2, (R)-5-chloro-2-(4-(2-chloro-4-fluoro-3-(methylsulfonyl)phenyl)-2-isopropylpiperazin-1-yl)-4-cyclopropylpyrimidine] | 172 nM | 1227 (7) % | 1230 nM | 750 nM | 3610 (83) % | 3610 nM | 2140 nM |  |  |  |  |  | Cell LXRβ efficacy [2]: 750 (10) %; Cell LXRβ efficacy [4]: 2144 (96) %; EC50 (LXR α LBD protein [5]): 271 nM; FRET LXRα efficacy (LXR α LBD protein [5]): 12%
CS(=O)(=O)c1cccc(N2CCN(C[C@@H]3C[C@@H]4[C@H](C3)C4(F)F)[C@@H](c3ccccc3)C2)c1 (single isomer, unassigned) [48-66] |  | 2518 (40) % | 2520 nM |  | 7360 (100) % | 7360 nM |  | 804 nM | 81% |  |  |  | Ki (LXR β LBD protein; Biological Test Example 1): 103 nM; Cell LXRβ efficacy ([2]; Biological Test Example 2, agonist mode): 20%; EC50 ([2]; Biological Test Example 2, agonist mode, read-out: Cell LXRβ EC50): 716 nM; IC50 [4, 8]: 824 nM
CC(O)c1cnc(N2CCN(c3ccc(F)c(S(C)(=O)=O)c3)C[C@H]2C(C)C)nc1C(F)(F)F (mixture of isomers) [Cpd No 12-1, 1-(2-((R)-4-(4-fluoro-3-(methylsulfonyl)phenyl)-2-isopropylpiperazin-1-yl)-4-(trifluoromethyl)pyrimidin-5-yl)ethan-1-ol] | 23 nM | 969 (46) % | 969 nM | 154 nM | 8047 (105) % | 8050 nM | 252 nM | 230 nM |  | 154 (37) % |  |  | 
CC(C)[C@@H]1CN(c2ccc(F)c(S(C)(=O)=O)c2)CCN1c1ncc(C(=O)N(C)CCC(C)(C)O)c(C(F)(F)F)n1 [17-17, (R)-2-(4-(4-fluoro-3-(methylsulfonyl)phenyl)-2-isopropylpiperazin-1-yl)-N-(3-hydroxy-3-methylbutyl)-N-methyl-4-(trifluoromethyl)pyrimidine-5-carboxamide] | 618 nM |  |  | > 20000 nM |  |  | 684 nM | > 3330 nM | 684 (93) % |  | > 20000 nM | 2610 nM | 
CNS(=O)(=O)c1cc(N2CCN(c3ncc(C(C)(C)O)c(C(F)(F)F)n3)[C@H](C(C)C)C2)ccc1F [10-3, (R)-2-fluoro-5-(4-(5-(2-hydroxypropan-2-yl)-4-(trifluoromethyl)pyrimidin-2-yl)-3-isopropylpiperazin-1-yl)-N-methylbenzenesulfonamide] | 5 nM | 646 (35) % |  | 69 nM | 2003 (83) % |  | 242 nM | 135 nM |  | 69 (24) % | 646 nM | 2000 nM | 
Cc1nc(N2CCN(c3ccc(F)c(S(C)(=O)=O)c3)C[C@H]2C(C)C)ncc1Cl [7-12, (R)-5-chloro-2-(4-(4-fluoro-3-(methylsulfonyl)phenyl)-2-isopropylpiperazin-1-yl)-4-methylpyrimidine] | 9 nM | 997 (83) % | 997 nM | 177 nM |  | > 10000 nM | > 10000 nM | 105 nM |  | 177 (58) % |  |  | EC50 (LXR α LBD protein [5]): 677 nM; FRET LXRα efficacy (LXR α LBD protein [5]): 86%
CC(C)[C@@H]1CN(c2ccc(F)c(S(C)(=O)=O)c2)CCN1c1ncc(CN(C)C(C)(C)C)c(C(F)(F)F)n1 [15-6, (R)-N-((2-(4-(4-fluoro-3-(methylsulfonyl)phenyl)-2-isopropylpiperazin-1-yl)-4-(trifluoromethyl)pyrimidin-5-yl)methyl)-N,2-dimethylpropan-2-amine] | 360 nM |  |  | > 20000 nM | 6215 (98) % |  | 1320 nM | > 3330 nM | 1325 (91) % |  | > 20000 nM | 6220 nM | 
CCCCN(C)C(=O)c1cnc(N2CCN(c3ccc(F)c(S(C)(=O)=O)c3)C[C@H]2C(C)C)nc1C(F)(F)F [17-10, (R)-N-butyl-2-(4-(4-fluoro-3-(methylsulfonyl)phenyl)-2-isopropylpiperazin-1-yl)-N-methyl-4-(trifluoromethyl)pyrimidine-5-carboxamide] | 65 nM |  |  | > 20000 nM | 501 (94) % |  | 100 nM | 558 nM | 100 (89) % |  | > 20000 nM | 501 nM | 
CS(=O)(=O)c1cccc(N2CCN(C[C@H]3CC[C@@](C)(O)CC3)[C@@H](c3ccccc3)C2)c1 (single isomer, unassigned) [48-5] | 123 nM |  | > 20000 nM |  | 1169 (61) % | 1170 nM |  | 1270 nM | 93% |  |  |  | EC50 [2, 11]: > 20000 nM; IC50 [4, 8]: 118 nM
CC[C@@H](O)c1cnc(N2CCN(c3ccc(F)c(S(C)(=O)=O)c3)C[C@H]2C(C)C)nc1C(F)(F)F (single isomer, unassigned) [Cpd No 12-7] | 9 nM | 862 (25) % |  | 49 nM |  |  | 104 nM | 82 nM | 104 (87) % | 49 (15) % | 862 nM | 686 nM | 
CC(C)[C@@H]1CN(c2cccc(S(C)(=O)=O)c2)CCN1c1nccc(OC(F)F)n1 [44-2, (R)-4-(difluoromethoxy)-2-(2-isopropyl-4-(3-(methylsulfonyl)phenyl)piperazin-1-yl)pyrimidine] | 35 nM | 2594 (24) % |  | 205 nM |  |  | 177 nM | 520 nM |  |  |  |  | EC50 [1]: 2590 nM; Cell LXRβ efficacy [2]: 205 (10) %; IC50 [3]: 1470 nM; Cell LXRα efficacy [3, 7]: 105%; Cell LXRβ efficacy [4]: 177 (103) %
CC(C)[C@@H]1CN(c2ccc(F)c(S(C)(=O)=O)c2)CCN1c1ccc(C(F)(F)F)cn1 [7-36, (R)-4-(4-fluoro-3-(methylsulfonyl)phenyl)-2-isopropyl-1-(5-(trifluoromethyl)pyridin-2-yl)piperazine] | 4 nM | 333 (106) % | 333 nM | 121 nM |  | > 10000 nM | > 10000 nM | 30 nM |  |  |  |  | Cell LXRβ efficacy [2]: 121 (93) %; EC50 (LXR α LBD protein [5]): 415 nM; FRET LXRα efficacy (LXR α LBD protein [5]): 102%
CC(C)[C@@H]1CN(c2ccc(F)c(S(C)(=O)=O)c2)CCN1c1ncc(C(=O)N(C)CCCO)c(C(F)(F)F)n1 [17-11, (R)-2-(4-(4-fluoro-3-(methylsulfonyl)phenyl)-2-isopropylpiperazin-1-yl)-N-(3-hydroxypropyl)-N-methyl-4-(trifluoromethyl)pyrimidine-5-carboxamide] | 548 nM |  |  | > 20000 nM |  |  | 875 nM | 4880 nM | 875 (90) % |  | > 20000 nM | 3460 nM | 
NS(=O)(=O)c1cccc(N2CCN(C[C@H]3CC[C@@H](C(F)F)CC3)[C@@H](c3ccccc3)C2)c1 (single isomer, unassigned) [48-23] | 11 nM | 319 (43) % | 319 nM |  | 4955 (123) % | 4960 nM |  | 94 nM | 91% | 14% |  |  | EC50 [2, 11]: 97 nM; IC50 [4, 8]: 408 nM
